Assay results: patent US20250367099A1, “UROLITHIN COMBINATIONS” (priority 2024, published 2025)

How the values were obtained:
C2C12 myotubes = assay: Fatty acid oxidation / mitochondrial respiration analysis on C2C12 myotubes (Seahorse XF96); format: cell-based, Mouse; details: UA 50 uM, Astaxanthin 20 uM; for induced mitochondrial respiration / Relative Change (%) Compared to DMSO 0.1%: C2C12 myotubes; for induced mitochondrial respiration: 24 hours treatment, vs DMSO; for % increase in maximal mitochondrial respiration: Table 3: change in maximal mitochondrial respiration vs DMSO, 24 hours; for Relative Change (%) Compared to DMSO 0.1%: Table 4
Method: Fatty acid oxidation analysis on C2C12 myotubes was measured with a Seahorse XF96 extracellular flux analyzer. […] were seeded at 8,000 cells/well in an XF96 cell culture microplate. Once cells reached confluence, they were differentiated with DMEM (Gibco, 31966047) supplemented with 2% Horse serum, 1% PenStrep and 1% Hepes for 5 days. Cells were treated with UA 50 uM (Amazentis) and Astaxanthin 20 uM (MedChemExpress, LKT-A7476) for 24 hours in substrate-limited media (Gibco, A1443001) supplemented with 0.5 mM glucose, 1 mM glutamine, 1% Oleic acid and 0.5 mM L-Carnitine. Maximal respiration was monitored by injection of 3 µM FCCP in the cartridge. Prior to the assay, cells were incubated in a Fatty acid oxidation medium (111 mM NaCl, 4.7 mM KCl, 1.25 mM CaCI2, 2 mM MgSO4, 1.2 mM NaH2PO4, 5 mM L-Carnitine, 5 mM Hepes, 2.5 mM Glucose) for 20 min, solution must be adjusted to pH 7.4 at 37° C. Mouse muscle C2C12 myotubes were treated for 24 hours with either Urolithin A alone, Astaxanthin alone or a combination of both compounds. Urolithin A alone induced mitochondrial respiration (+8.5%, Table 4). Astaxanthin alone induced mitochondrial respiration (+3.2% Table.4).

interleukin 6 (IL-6) = assay: Cytokine mix (CTX)-induced IL-6 release in normal human dermal fibroblasts (ELISA); format: cell-based; details: Zinc 100 uM; for Relative Change (%) Compared to CTX: Table 5, IL-6, nHDF; for Relative Change (%) Compared to CTX / reduction of CTX-mediated increase of IL-6: CTX 0.025 ng/ml; for Relative Change (%) Compared to CTX / % reduction IL-6: UA 2.5 uM; for % reduction IL-6: Table 6, IL-6 concentration in cell supernatant, CTX vs CTX + treatment; for reduction of CTX-mediated increase of IL-6: nHDF, urolithin A 2.5 uM, 24 h pre-treatment + 24 h co-treatment
Method: The protective effects of urolithin A and Zinc against inflammation induced by a cytokines mix (Cytomix, CTX) in human dermal fibroblasts (nHDF cells) were investigated. A dose of 0.025 ng/ml of Cytokines mix was applied to induce inflammation, measured by quantifying the levels of the pro-inflammatory cytokine interleukin 6 (IL-6) in the cell culture supernatant. For the experiment, cells were first pre-treated with either i) urolithin A 2.5 uM, ii) Zinc at 100 uM, iii) a combination of urolithin A 2.5 uM and Zinc 100 uM, iv) or DMSO as control for 24 h. Then cells were co-treated with both CTX and either urolithin A or Zinc alone or in combination, as above. After 24h, IL-6 was measured in the cell supernatant to assess the ability of Urolithin A and Zinc to reduce Cytokines-induced inflammation.
Normal Human dermal fibroblasts (nHDF) purchased from Promocell (ref. C-12302) were seeded at 6000 cells per well in a 96 well plate (Greiner) using a DMEM Glutamax 1 g D-glucose (Gibco, ref 21885108) supplemented with FBS 10% (PanBiotech, ref P30-3033), 1% PenStrep (Biowest) and 1% Hepes (Biowest). All media were sterilized with a 0.45 μm filter unit (VWR). The day after the seeded cells were treated for 24 h with 1) Urolithin A (UA) resuspended in DMSO, Zinc gluconate (MedChemExpress Ref. HY-W145499) or a combination of the two at the indicated doses. Cytokine mix (“cytomix”) was added in addition of the previous treatment for another 24h, cytokines were used equally for a total and final concentration of 0.025 ng/ml (mIFN-g (roche ref.11276905001), TNF-α (Peprotech ref. 300-01A) and IL-b (Proteintech ref. 200-01B)). The medium was collected and an ELISA for Interleukin-6 were performed following the instruction provided by the supplier (Proteintech ref. KE10007). Finally, the absorbance at a wavelength of 450 nm was measured using a microplate plate reader (Fluostar Optima, BMG Labtech). IL-6 data were finally normalized over cell number, calculated with a cell viability assay (Promega, ref. G7571).

Row | Molecule | induced mitochondrial respiration (C2C12 myotubes) | % increase in maximal mitochondrial respiration (C2C12 myotubes) | Relative Change (%) Compared to DMSO 0.1% (C2C12 myotubes) | Relative Change (%) Compared to CTX (interleukin 6 (IL-6)) | % reduction IL-6 (interleukin 6 (IL-6)) | reduction of CTX-mediated increase of IL-6 (interleukin 6 (IL-6))
1 | CC1=C(/C=C/C(C)=C/C=C/C(C)=C/C=C/C=C(C)/C=C/C=C(C)/C=C/C2=C(C)C(=O)[C@@H](O)CC2(C)C)C(C)(C)C[C@H](O)C1=O [Astaxanthin] | +3.2% | +3.3% | 2.6% | – | – | –
2 | Zinc gluconate | – | – | – | −29.57% | −29.6% | 29.6%
3 | O=c1oc2cc(O)ccc2c2ccc(O)cc12 [Urolithin A] | +8.5% | +8.5% | 8.4% | −25.05% | 25% | 25%
